From US10072262B2, “RIG-I ligands and methods for producing them” (RHEINISCHE FRIEDRICH-WILHELMS-UNIVERSITÄT BONN, priority 2012, dated 2018)

Target: T1, RIG-I (Homo sapiens, UniProt O95786)
T1 construct: endogenous in cells
T1 sequence (O95786 1-925): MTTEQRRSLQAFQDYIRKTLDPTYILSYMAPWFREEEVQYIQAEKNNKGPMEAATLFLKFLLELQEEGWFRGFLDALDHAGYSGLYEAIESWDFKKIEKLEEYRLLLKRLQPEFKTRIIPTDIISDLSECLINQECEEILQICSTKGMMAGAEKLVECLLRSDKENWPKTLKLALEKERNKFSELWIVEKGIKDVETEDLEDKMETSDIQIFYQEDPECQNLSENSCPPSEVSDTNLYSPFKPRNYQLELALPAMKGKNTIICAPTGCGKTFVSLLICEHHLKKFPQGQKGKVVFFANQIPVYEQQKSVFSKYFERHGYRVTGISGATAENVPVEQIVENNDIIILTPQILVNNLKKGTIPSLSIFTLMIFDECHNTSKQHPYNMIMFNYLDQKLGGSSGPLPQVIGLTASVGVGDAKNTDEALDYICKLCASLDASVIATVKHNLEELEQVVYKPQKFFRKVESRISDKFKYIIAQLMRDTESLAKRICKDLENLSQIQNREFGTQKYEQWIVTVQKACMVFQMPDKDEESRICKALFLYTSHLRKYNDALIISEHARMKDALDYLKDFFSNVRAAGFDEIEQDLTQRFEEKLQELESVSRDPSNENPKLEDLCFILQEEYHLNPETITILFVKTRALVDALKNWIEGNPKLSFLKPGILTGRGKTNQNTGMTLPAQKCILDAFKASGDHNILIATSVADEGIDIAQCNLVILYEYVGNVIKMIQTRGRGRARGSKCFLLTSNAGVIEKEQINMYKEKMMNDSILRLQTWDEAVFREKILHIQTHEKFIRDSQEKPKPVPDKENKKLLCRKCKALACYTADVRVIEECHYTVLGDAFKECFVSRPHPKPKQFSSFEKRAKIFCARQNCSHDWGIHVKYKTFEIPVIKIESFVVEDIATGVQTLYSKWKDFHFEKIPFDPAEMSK
Assay: RIG-I stimulation: chloroquine-blocked PBMCs, duplex lipofection, IFNa ELISA at 20 h
Assay type: cell-based
Conditions: FIG. 7B titration
Description: A screen of 2′-O-methylations resolved positions to introduce RIG-I selectivity (FIG. 5). For the sense (A) and antisense (B) strand of OH-GFP2 a full 2′-O-methylation screen was performed. Each position was modified individually by 2′-O-methylation and used for stimulation of RIG-I, TLR7 or TLR8. For stimulation of RIG-I, peripheral blood mononuclear cells (PBMCs) were blocked with Chloroquine and stimulated by lipofection of the duplex. IFNa was measured 20 h post stimulation by ELISA. For TLR7 and TLR8 only the relevant single-strand was screened for stimulatory capacity and checked on unblocked PBMCs. The single-strands were transfected by complexation with poly-L-Arginine and 20 h post transfection for TLR7 activation IFNa, for TLR8 activation IL12p70 was measured by ELISA. […]
FIG. 6: (A) Methylations inert for RIG-I activation were combined in the antisense strand and the resulting duplex was used for stimulation of chloroquine-blocked PBMCs at a concentration of 0.8 μg/ml. IFNa was measured by ELISA at 20 h post stimulation. […]
FIG. 7: (A) PBMCs were blocked with Chloroquine and stimulated with duplexes at a concentration of 0.8 μg/ml. 20 h post stimulation IFNa was measured by ELISA. […] 20 h post stimulation IFNa was determined in the supernatant by ELISA. […]

Row | Substance | IFNa corresponding to 100% (50 nM, chloroquine-blocked PBMCs, Lipofectamine, 20 h, 4 donors) | duplex immune activity (effect of 5′-PTO modification), in words (compared with s15/as3)
1 | 3P-GFP2: ppp-GACGCUGACCCUGAAGUUCAUCUU / CUGCGACUGGGACUUCAAGUAGAA; unmodified triphosphate duplex (5'-triphosphate, chemistry not fully specified; one strand is listed 3' to 5') | 16044 pg/mL | 
2 | s15 PTO/as3 PTO: G*A*C GCUGACCCUGAAmGUUCAUC U U / C U GmCGACUGGGACUU CAAGUAG*A*A; * = PTO, Nm = 2′-OCH3 (sense GACGCUGACCCUGAAGUUCAUCUU; antisense CUGCGACUGGGACUUCAAGUAGAA; phosphorothioate and 2'-O-methyl modifications, chemistry not fully specified; one strand is listed 3' to 5') |  | maximum increase in activity
